{"source": "PubChem BioAssay AID1963830", "about": "(Molecular Pharmacology Branch, DTP, NCI, 2024)", "system": "922993-354-T-J3-PDC complex spheroid viability", "assay": "Anticancer human tumor 922993-354-T-J3-PDC patient-derived endometrial carcinoma cell line growth inhibition [POLQ]", "conditions": "for viability, T/C: stronger effect = lower value", "procedure": "Multicellular complex tumor spheroid response to Polymerase (POL) inhibitors (novobiocin, ART-558, RP6685) in combination with a variety of drugs and investigational agents in selected tumor cell lines\nThe POL inhibitors (novobiocin, ART-558, and RP6685) were evaluated both individually and in combination with standard of care and investigational anticancer small molecules within a complex spheroid model of solid tumors. . Complex spheroids include a stromal component modeled by human endothelial cells (HUVEC) and fibroblasts modeled by human mesenchymal stem cells (MSCs). The concentration ranges selected for each drug and investigational agent were based upon clinically achievable concentrations if the clinical Cmax of the agent was known.\nCompounds. The drugs and investigational agents: novobiocin (NSC847541), ART-558 (NSC835418), RP-6685 (NSC848927), peposertib (NSC802822), ceralasertib (NSC780249), elimusertib (NSC800525), camonsertib (NSC841442), AZD-1390 (NSC803789), olaparib (NSC753686), talazoparib (NSC767125), rucaparib (NSC756644), sotorasib (NSC818433), MRTX-1133 (NSC836407), SN-38 (NSC673596), topotecan (NSC609699), epotoside (NSC141540), doxorubicin (NSC123127), gemcitabine (NSC613327), 5-fluorouracil (NSC19893), paclitaxel (NSC125973), vemurafenib (NSC761431), MSA-2 (NSC828583), SN-011 (NSC837082), adavosertib (NSC754352), prexasertib (NSC758257), carboplatin (NSC241240) and oxaliplatin (NSC266046), were obtained from the National Cancer Institute (NCI) Developmental Therapeutics Program Chemical Repository (21). The FDA-approved anticancer drug set is available from the Developmental Therapeutics Program at https://dtp.cancer.gov/organization/dscb/obtaining/. […] The stock solutions were prepared in dimethyl sulfoxide (DMSO, Sigma-Aldrich, St. Louis, MO, cat. D2650), except for the platinum compounds which were prepared in saline (Quality Biological, Gaithersburg, MD, cat. 114-055-101), at 800-fold the tested concentration and stored at -70 degrees C prior to their use. All drugs and investigational agents were tested over a range starting from a high concentration at or near the clinical Cmax and decreasing in half-log increments. If the clinical Cmax for an agent had not been determined, the highest concentration tested was 10 microM, except for SN-38, which was tested at a high concentration of 1 microM.\nCell Culture. All cells were maintained in an incubator at 37 degrees C and 5% CO2 with 95% humidity. The PDC lines were cultured according to standard operating procedures established by the NCI PDMR (https://pdmr.cancer.gov). Table 3 of the manuscript, lists the cell lines along with the number of the three cell types plated to form the mct-spheroids and media for tumor cell growth. After thawing, all PDC lines, except 997537-175-T-J1-PDC and 415267-285-R-J2-PDC, were cultured in Matrigel-coated flasks prepared with a working solution of 1X Ham's F-12 nutrient mix, without supplementation (Thermo Fisher Scientific, cat. 11765054), 100 U/mL penicillin-streptomycin (Thermo Fisher Scientific, cat. 15140122), and 2.5% Matrigel (Corning Inc., Corning, NY, cat. 354248) for the first three passages. The two PDC lines 997537-175-T-J1-PDC and 415267-285-R-J2-PDC were cultured on uncoated flasks. The 857933-349-R-J2-PDC line was cultured in 6C/Colon 1B media containing advanced DMEM/F-12 (Thermo Fisher Scientific, cat. 12634028), 10 mM HEPES (Thermo Fisher Scientific, cat. 15630080), 1X GlutaMAX supplement (Thermo Fisher Scientific, cat. 35050061), 0.1 mg/mL primocin (InvivoGen, San Diego, CA, cat. ant-pm-2), 10% defined fetal bovine serum, heat inactivated (HyClone Laboratories Inc., Logan, UT, cat. SH30070.03HI), 50% L-WRN conditioned media (ATCC, cat. CRL-3276), 1.25 mM N-Acetyl-L-cysteine (Sigma-Aldrich, cat. A9165), 10 mM nicotinamide (Sigma-Aldrich, cat. N0636), 1X B-27 supplement (Thermo Fisher Scientific, cat. 17504044), 1X N-2 supplement (Thermo Fisher Scientific, cat. […]", "note": "Several values for one entry are separate records, joined by “and”; a condition that tells them apart may be missing. Identical values can stand only once.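 Further: spheroids exposed to the agents for one week.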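 Wherever viability, T/C is given: 100% = DMSO vehicle control wells.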", "data": [{"smiles": "C#Cc1c(F)ccc2cc(O)cc(-c3ncc4c(N5CC6CCC(C5)N6)nc(OCC56CCCN5CC(F)C6)nc4c3F)c12", "note": "(stereo not drawn) + COC1C(OC(N)=O)C(O)C(Oc2ccc3c(O)c(NC(=O)c4ccc(O)c(CC=C(C)C)c4)c(=O)oc3c2C)OC1(C)C", "values": [{"measurement": "IC50", "setting": "curve of first compound, second compound 0.0316 µM", "result": "> 10000", "unit": "nM"}, {"measurement": "IC50", "setting": "curve of first compound, second compound 0.1 µM", "result": "> 10000", "unit": "nM"}, {"measurement": "IC50", "setting": "curve of first compound, second compound 0.316 µM", "result": "> 10000", "unit": "nM"}, {"measurement": "IC50", "setting": "curve of first compound, second compound 1 µM", "result": "> 10000", "unit": "nM"}, {"measurement": "IC50", "setting": "curve of first compound, second compound 3.16 µM", "result": "> 10000", "unit": "nM"}, {"measurement": "IC50", "setting": "curve of first compound, second compound 10 µM", "result": "> 10000", "unit": "nM"}, {"measurement": "viability, T/C", "setting": "second compound 0.0316 µM, first compound 0.0316 µM", "result": 100, "unit": "%"}, {"measurement": "viability, T/C", "setting": "second compound 0.0316 µM, first compound 0.1 µM", "result": 97.4, "unit": "%"}, {"measurement": "viability, T/C", "setting": "second compound 0.0316 µM, first compound 0.316 µM", "result": 90.5, "unit": "%"}, {"measurement": "viability, T/C", "setting": "second compound 0.0316 µM, first compound 1 µM", "result": 101, "unit": "%"}, {"measurement": "viability, T/C", "setting": "second compound 0.0316 µM, first compound 3.16 µM", "result": 98, "unit": "%"}, {"measurement": "viability, T/C", "setting": "second compound 0.0316 µM, first compound 10 µM", "result": 79.5, "unit": "%"}, {"measurement": "viability, T/C", "setting": "second compound 0.1 µM, first compound 0.0316 µM", "result": 105, "unit": "%"}, {"measurement": "viability, T/C", "setting": "second compound 0.1 µM, first compound 0.1 µM", "result": 101, "unit": "%"}, {"measurement": "viability, T/C", "setting": "second compound 0.1 µM, first compound 0.316 µM", "result": 98.8, "unit": "%"}, {"measurement": "viability, T/C", "setting": "second compound 0.1 µM, first compound 1 µM", "result": 90.3, "unit": "%"}, {"measurement": "viability, T/C", "setting": "second compound 0.1 µM, first compound 3.16 µM", "result": 94.9, "unit": "%"}, {"measurement": "viability, T/C", "setting": "second compound 0.1 µM, first compound 10 µM", "result": 90.4, "unit": "%"}, {"measurement": "viability, T/C", "setting": "second compound 0.316 µM, first compound 0.0316 µM", "result": 105, "unit": "%"}, {"measurement": "viability, T/C", "setting": "second compound 0.316 µM, first compound 0.1 µM", "result": 98.4, "unit": "%"}, {"measurement": "viability, T/C", "setting": "second compound 0.316 µM, first compound 0.316 µM", "result": 104, "unit": "%"}, {"measurement": "viability, T/C", "setting": "second compound 0.316 µM, first compound 1 µM", "result": 87.2, "unit": "%"}, {"measurement": "viability, T/C", "setting": "second compound 0.316 µM, first compound 3.16 µM", "result": 92.8, "unit": "%"}, {"measurement": "viability, T/C", "setting": "second compound 0.316 µM, first compound 10 µM", "result": 90, "unit": "%"}, {"measurement": "viability, T/C", "setting": "second compound 1 µM, first compound 0.0316 µM", "result": 96.9, "unit": "%"}, {"measurement": "viability, T/C", "setting": "second compound 1 µM, first compound 0.1 µM", "result": 98.8, "unit": "%"}, {"measurement": "viability, T/C", "setting": "second compound 1 µM, first compound 0.316 µM", "result": 94.9, "unit": "%"}, {"measurement": "viability, T/C", "setting": "second compound 1 µM, first compound 1 µM", "result": 94.2, "unit": "%"}, {"measurement": "viability, T/C", "setting": "second compound 1 µM, first compound 3.16 µM", "result": 93, "unit": "%"}, {"measurement": "viability, T/C", "setting": "second compound 1 µM, first compound 10 µM", "result": 86.9, "unit": "%"}, {"measurement": "viability, T/C", "setting": "second compound 3.16 µM, first compound 0.0316 µM", "result": 96.9, "unit": "%"}, {"measurement": "viability, T/C", "setting": "second compound 3.16 µM, first compound 0.1 µM", "result": 90.3, "unit": "%"}, {"measurement": "viability, T/C", "setting": "second compound 3.16 µM, first compound 0.316 µM", "result": 98.3, "unit": "%"}, {"measurement": "viability, T/C", "setting": "second compound 3.16 µM, first compound 1 µM", "result": 81.7, "unit": "%"}, {"measurement": "viability, T/C", "setting": "second compound 3.16 µM, first compound 3.16 µM", "result": 99.5, "unit": "%"}, {"measurement": "viability, T/C", "setting": "second compound 3.16 µM, first compound 10 µM", "result": 74.9, "unit": "%"}, {"measurement": "viability, T/C", "setting": "second compound 10 µM, first compound 0.0316 µM", "result": 81.8, "unit": "%"}, {"measurement": "viability, T/C", "setting": "second compound 10 µM, first compound 0.1 µM", "result": 86.2, "unit": "%"}, {"measurement": "viability, T/C", "setting": "second compound 10 µM, first compound 0.316 µM", "result": 90.4, "unit": "%"}, {"measurement": "viability, T/C", "setting": "second compound 10 µM, first compound 1 µM", "result": 89.5, "unit": "%"}, {"measurement": "viability, T/C", "setting": "second compound 10 µM, first compound 3.16 µM", "result": 96.2, "unit": "%"}, {"measurement": "viability, T/C", "setting": "second compound 10 µM, first compound 10 µM", "result": 72.1, "unit": "%"}]}, {"smiles": "C=CC(=O)N1CCN(c2nc(=O)n(-c3c(C)ccnc3C(C)C)c3nc(-c4c(O)cccc4F)c(F)cc23)C(C)C1", "note": "(stereo not drawn)", "values": [{"measurement": "viability, T/C", "setting": "compound 0.0316 µM", "result": "107% and 106% and 97.9%"}, {"measurement": "viability, T/C", "setting": "compound 0.1 µM", "result": "93.5% and 101% and 94.9%"}, {"measurement": "viability, T/C", "setting": "compound 0.316 µM", "result": "96% and 106% and 92.7%"}, {"measurement": "viability, T/C", "setting": "compound 1 µM", "result": "104% (2×) and 107%"}, {"measurement": "viability, T/C", "setting": "compound 3.16 µM", "result": "105% and 104% and 97.4%"}, {"measurement": "viability, T/C", "setting": "compound 10 µM", "result": "98.8% and 106% and 75%"}, {"measurement": "IC50", "setting": "curve of compound", "result": "> 10000", "unit": "nM"}]}, {"smiles": "CC1COCCN1c1cc(-c2ccnn2C)c2ccnc(-c3ccn[nH]3)c2n1", "note": "(stereo not drawn)", "values": [{"measurement": "viability, T/C", "setting": "compound 0.0316 µM", "result": "102% and 89.6% and 107%"}, {"measurement": "viability, T/C", "setting": "compound 0.1 µM", "result": "66.9% and 60.1% and 93.3%"}, {"measurement": "viability, T/C", "setting": "compound 0.316 µM", "result": "23.1% and 29.1% and 69.8%"}, {"measurement": "viability, T/C", "setting": "compound 1 µM", "result": "11.8% and 12.8% and 36.8%"}, {"measurement": "viability, T/C", "setting": "compound 3.16 µM", "result": "9.13% and 7.87% and 19.7%"}, {"measurement": "viability, T/C", "setting": "compound 10 µM", "result": "10.8% and 9.87% and 13.7%"}, {"measurement": "IC50", "setting": "curve of compound", "result": "156 nM and 146 nM and 630 nM"}]}, {"smiles": "O=c1[nH]cc(F)c(=O)[nH]1", "values": [{"measurement": "viability, T/C", "setting": "compound 0.0316 µM", "result": "92.3% and 104% and 112%"}, {"measurement": "viability, T/C", "setting": "compound 0.1 µM", "result": "105% and 101% and 99.1%"}, {"measurement": "viability, T/C", "setting": "compound 0.316 µM", "result": "95% and 101% and 95.6%"}, {"measurement": "viability, T/C", "setting": "compound 1 µM", "result": "101% and 105% and 99.3%"}, {"measurement": "viability, T/C", "setting": "compound 3.16 µM", "result": "30.5% and 79.5% and 27.9%"}, {"measurement": "viability, T/C", "setting": "compound 10 µM", "result": "14.8% and 24.6% and 17.6%"}, {"measurement": "IC50", "setting": "curve of compound", "result": "2270 nM and 5890 nM and 2210 nM"}]}]}
